Data set [1] concerns CNE-2. Description: Antiproliferative activity against human CNE-2 cells assessed as cell growth inhibition by MTT assay. Type of data set: functional, cell-based. In general terms: Tetrazolium assays rely on reduction of a dye to a coloured formazan, in cell work by metabolically active cells.
Data set [2] deals with CNE-2. Description: Induction of apoptosis in human CNE-2 cells assessed as early apoptotic cells at 1 uM measured after 24 hrs by annexin-V-FITC and PI staining based flow cytometry analysis (reference value: 0.439%). Type of data set: functional.
Another data set concerns A2780. Description: Antiproliferative activity against human A2780 cells assessed as cell growth inhibition by MTT assay. Type of data set: functional, cell-based.
A further data set has as its system T-24. Kind of data set: Antiproliferative activity against human T24 cells assessed as cell growth inhibition by MTT assay. Format: functional, cell-based.
In data set [3] the test system is MGC-803. Description: Antitumor activity against human MGC-803 cells xenografted in nude mouse assessed as reduction in tumor weight at 8 mg/kg, ip administrated every other day for 21 days relative to control. Type of data set: functional. Set-up: scale not given: the % may be the effect or the level left. Particulars: time 21 day. (In general: A xenograft is tissue or cells of one species grown in another, often human tumour cells in immunodeficient mice.)

The subject of data set [4] is CNE-2. Kind of data set: Induction of apoptosis in human CNE-2 cells at 0.5 to 2 uM by Hoechst 33258 staining based fluorescence microscopic analysis. Type of data set: functional, cell-based. Particulars: dose 0.5-2 µM.
Data set [5] deals with MGC-803. Kind of data set: Antiproliferative activity against human MGC-803 cells assessed as cell growth inhibition by MTT assay. Format: functional, cell-based.
The subject of data set [6] is CNE-2. Description: Induction of apoptosis in human CNE-2 cells assessed as viable cells at 1 uM measured after 24 hrs by annexin-V-FITC and PI staining based flow cytometry analysis (reference value: 94.8%). Particulars: read-out: Activity. Format: functional. (In general: In flow cytometry, cells or beads pass a laser one at a time.)
Data set [7] relates to CNE-2. Kind of data set: Downregulation of CDK2 level in human CNE-2 cells measured after 48 hrs by Western blot analysis. Type of data set: functional, cell-based. Particulars: dose <= 2.0 µM.
Data set [8] is described as follows: Toxicity in nude mouse xenografted with human MGC-803 cells assessed as effect on body weight at 4 mg/kg, ip administrated every other day for 21 days. Particulars: in vivo, 504 h, time 21 day. Type of data set: organism-based.
For data set [9], the system named is CNE-2. Description: Induction of apoptosis in human CNE-2 cells assessed as late apoptotic cells at 2 uM measured after 24 hrs by annexin-V-FITC and PI staining based flow cytometry analysis (reference value: 3.79%). Format: functional.
Data set [10] has as its system CNE-2. Kind of data set: Induction of ROS generation in human CNE-2 cells at 0.5 to 2 uM incubated for 24 hrs by DCFH2-DA probe based analysis. Type of data set: functional, cell-based. Particulars: dose 0.5-2 µM.
Data set [11] concerns CNE-2. Description: Induction of cell cycle arrest in human CNE-2 cells assessed as accumulation of cells at G1 phase at 1 uM measured after 48 hrs by flow cytometry analysis (Rvb= 73.18%). Format: functional.
Data set [12] deals with MGC-803. Kind of data set: Toxicity in nude mouse xenografted with human MGC-803 cells assessed as morphological changes in heart at 8 mg/kg, ip administrated every other day for 21 days. Format: functional, organism-based. The conditions noted are these: time 21.0 day.
In data set [13] the test system is CNE-2. Kind of data set: Induction of cell cycle arrest in human CNE-2 cells assessed as accumulation of cells at S phase measured after 48 hrs by flow cytometry analysis. Type of data set: functional, cell-based. Particulars: dose 0.5-2 µM.
The subject of data set [14] is MGC-803. Description: Toxicity in nude mouse xenografted with human MGC-803 cells assessed as morphological changes in spleen at 8 mg/kg, ip administrated every other day for 21 days. Type of data set: functional, organism-based. Particulars: time 21.0 day.
The subject of data set [15] is MGC-803. Kind of data set: Toxicity in nude mouse xenografted with human MGC-803 cells assessed as morphological changes in kidney at 8 mg/kg, ip administrated every other day for 21 days. Format: functional, organism-based. Particulars: time 21.0 day.
The nature of data set [16]: Toxicity in nude mouse xenografted with human MGC-803 cells assessed as effect on body weight at 4 mg/kg, ip administrated every other day measured at 9 to 14 days. Type of data set: organism-based. The conditions noted are these: in vivo, time 9-14 day.
The subject of data set [17] is MGC-803. Description: Toxicity in nude mouse xenografted with human MGC-803 cells assessed as morphological changes in lung at 8 mg/kg, ip administrated every other day for 21 days. Type of data set: functional, organism-based. The conditions noted are these: time 21.0 day.

Usually IC50 stands for the concentration that gives 50% inhibition.

The source made the active and inactive calls. No cut-off for these calls is given here.

Regarding `CN(C)CCN1C(=O)c2cccc3c(N4CCOCC4)c([N+](=O)[O-])cc(c23)C1=O`, the IC50 in the data set on CNE-2 [1] was determined as 1480 nM; in the data set on A2780, 4810 nM; with T-24 it was 1540 nM; in the data set on MGC-803 [5] it was 1560 nM. Besides, the Activity was 3.01% with CNE-2 [2]; 46.9% in the data set on MGC-803 [3]; “Dose-Dependent Effect” in the data set with CNE-2 [7]; “Toxic” in data set [8]; 9.2% in the data set with CNE-2 [9]; 69.25% in the data set with CNE-2 [11]. Further, the result with CNE-2 [4] and with CNE-2 [10] was Active. Further, in the data set with CNE-2 [6], the viability at 1 µM was found to be 82.9%.

Take `O=C1c2cccc3c(N4CCOCC4)c([N+](=O)[O-])cc(c23)C(=O)N1CCNCCN1C(=O)c2cccc3c(N4CCOCC4)c([N+](=O)[O-])cc(c23)C1=O`: the IC50 was 410 nM in the data set with CNE-2 [1], 620 nM with A2780, 1240 nM in the data set on T-24 and 90 nM in the data set on MGC-803 [5]. The Activity entry in the data set on MGC-803 [12] is “Not toxic”; with CNE-2 [2] it was 2.19%; in the data set on CNE-2 [13], “Dose-Dependent Effect”; with MGC-803 [3] it was 46%; with MGC-803 [14], “Not toxic”; in the data set on MGC-803 [15], “Not toxic”. Moreover, the Activity result in data set [16] is “Non-Toxic”; with CNE-2 [7] it was “Dose-Dependent Effect”; in the data set with CNE-2 [9], 13.4%; in the data set on MGC-803 [17], “Not toxic”; with CNE-2 [11], 66.18%. The outcome in the data set on CNE-2 [4] and in the data set with CNE-2 [10] was Active. Also, the viability at 1 µM in the data set on CNE-2 [6] came out at 83.4%.

The values above are taken from ChEMBL document CHEMBL5252609, “Design, synthesis, and antitumor evaluation of morpholine substituted bisnaphthalimides as DNA targeting agents” (Bioorg Med Chem Lett, 2023).
